# According to BindingDB's records for doi:10.1021/jm9707028 (Boehringer Ingelheim Pharmaceuticals, 1998):
# Assays:
# Assay in all cases: HIV-1 RT Assay
# [1] = molecular target: T1, Gag-Pol polyprotein [600-1027,P835L]/[600-1155,P835L] (Human immunodeficiency virus 1, UniProt P03366, P835L)
# T1 construct: 600-1027; 600-1155
# [2] = molecular target: T2, Gag-Pol polyprotein [600-1027,G789A]/[600-1155,G789A] (Human immunodeficiency virus 1, UniProt P03366, G789A)
# T2 construct: 600-1027; 600-1155
# [3] = molecular target: T3, Gag-Pol polyprotein [600-1027,K702N]/[600-1155,K702N] (Human immunodeficiency virus 1, UniProt P03366, K702N)
# T3 construct: 600-1027; 600-1155
# [4] = molecular target: T4, Gag-Pol polyprotein [600-1027,V705A]/[600-1155,V705A] (Human immunodeficiency virus 1, UniProt P03366, V705A)
# T4 construct: 600-1027; 600-1155
SMILES,IC50 [1],IC50 [2],IC50 [3],IC50 [4]
"CCN1c2ncc(CCc3ccncc3)cc2C(=O)N(C)c2ccc(Cl)nc21 [2,8-Substituted Dipyridodiazepinone 37]",110 nM,30 nM,120 nM,550 nM
"CCN1c2ncc(CCc3ccccc3)cc2C(=O)N(C)c2ccc(Cl)nc21 [2,8-Substituted Dipyridodiazepinone 36]",710 nM,120 nM,50 nM,840 nM
